Assay results published in paper PMC7139691, “Effect of Arginine on Chaperone-Like Activity of HspB6 and Monomeric 14-3-3ζ” (International Journal of Molecular Sciences, 2020).

Target: T1, HspB6 (Homo sapiens, UniProt O14558)
T1 construct: recombinant wild type; small oligomers of 55-60 kDa (dimers and tetramers)
T1 sequence (O14558 1-160): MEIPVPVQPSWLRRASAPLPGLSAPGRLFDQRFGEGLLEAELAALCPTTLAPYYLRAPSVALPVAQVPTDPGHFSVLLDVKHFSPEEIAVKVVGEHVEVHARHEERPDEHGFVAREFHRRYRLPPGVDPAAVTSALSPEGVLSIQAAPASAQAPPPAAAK
Test: intrinsic tryptophan fluorescence titration
Type: binding
Conditions: read-out: Kdiss

In the case of `N=C(N)NCCC[C@H](N)C(=O)O` [arginine], the Kd is reported as 10 ± 3 mM.
